Read-outs that look alike come from different tables or passages of the source.
What was measured:
GluA1 = target: T1, GluA1 (Rattus norvegicus, UniProt P19490); experiment: Whole-cell patch-clamp recording of homomeric GluA1 AMPAR expressed in HEK293T cells; type: cell-based
T1 construct: expressed in transfected cells; host or cells: HEK293T
Protocol: (§1) For the DNA preparation, the QIAGEN Plasmid Mini Kit was used to prepare up to 20 µg of high-copy plasmid DNA [30]. All AMPAR subunits utilized in this study included the flip isoform received from S. F. Heinemann (Salk Institute, La Jolla, CA, USA) and sub-cloned in pRK for expression in Human Embryonic Kidney Cells 293 (HEK293T). The human embryonic kidney (HEK293T) cells were obtained from Sigma, Taufkirchen, Germany, and we only used the HEK293T cell line due to their ease of growth and transfection and wide utilization in cell culture. For the transfection, we used the constructs GluA1, GluA2, GluA2/3, and GluA1/2, along with the GFP-expressing construct, as described in our previous work. The transfection reagents utilized were jetPRIME (Polyplus: New York, NY, USA) or Lipofectamine 2000 (Invitrogen; San Diego, CA, USA). The highly fluorescent cells were identified and selected for recording. The selected cells were seeded in Dulbecco Modified Eagle Medium (DMEM) (Sigma, Roedermark, Germany) containing 10% FBS, 0.1 mg/mL streptomycin, and 1 mM sodium pyruvate (Biological Industries; Beit-Haemek, Israel). The cells were incubated at 37 °C with 5% CO2 added to the medium and subcultured twice a week until they reached passage #20. Following a day and a half, the cells were replated on coverslips covered with Laminin (1 mg/mL; Sigma, Roedermark, Germany) for electrophysiological recordings. Our previous work has detailed the DNA preparation, cDNA transient transfection, and cell culture of HEK293T [30, 31, 32, 33].
(§2) After that, a patch was placed in front of a rapid perfusion system comprised of a theta tube flow pipe mounted on a piezoelectric translator that was used to wash the cell continuously from one barrel while the other supplied the compound of interest to the cell. Recordings were conducted 36–48 h after transfection at 22 °C, with a membrane potential of −60 mV. Currents were amplified using an integrated patch amplifier (IPA, Sutter Instruments, Novato, CA, USA), filtered at 2 kHz, and digitized at 10 kHz using SutterPatch Software v. 1.1.1 [46]. […] The extracellular medium contained (in mM): 150 NaCl, 2.8 KCl, 0.5 MgCl2, 2 CaCl2, and 10 HEPES, pH 7.4 adjusted with NaOH. The holding potential was typically −60 mV. The sample size was determined to be eight viable cells to calculate the mean inhibition of the derivative of interest. The solution exchange time (10–90% to peak) was estimated at […] using open-tip control at the end of a recording. Inhibition was calculated by comparing the current observed when the cell was supplied with glutamate alone and when the same cell was supplied with both glutamate and the 2,3-BDZ compounds. The initial tube containing only glutamate was reintroduced to the cell to ensure cellular safety and authenticate the antagonist’s findings. This step ensured that the glutamate-induced current observed before the administration of the antagonist was nearly indistinguishable from the current observed after administration.
(§3) The experiment served two purposes: first, determining the whole-cell current amplitude ratio in the absence and presence of the compounds (A/AI) to derive a constant inhibitory value independent of the rate measurement. Second, as an independent control method, a fast exchange solution flow methodology was employed using piezoelectric actuators, providing the fastest exchange solution with open-tip current rise times in the 100–300 μs range to assess the amplitude of the whole-cell current. Detailed data analysis of this process is provided in the supporting information (Tables S1–S4).
(§4) The data acquired were analyzed using Igor Pro7 (Wave Metrics, Inc., Portland, OR, USA). Receptor desensitization (τw des) and deactivation rates were estimated by fitting the current decay starting from 95% of the peak to the baseline current using a double exponential formulation. […]

GluA1/2 = target: T2, GluA1/2 (Rattus norvegicus, UniProt P19490+P19491); experiment: Whole-cell patch-clamp recording of heteromeric GluA1/2 AMPAR expressed in HEK293T cells; type: cell-based
T2 construct: expressed in transfected cells; host or cells: HEK293T
Protocol: as §1, §2, §3, §4

GluA2 = target: T3, GluA2 (Rattus norvegicus, UniProt P19491); experiment: Whole-cell patch-clamp recording of homomeric GluA2 AMPAR expressed in HEK293T cells; type: cell-based
T3 construct: expressed in transfected cells; host or cells: HEK293T
Protocol: as §1, §2, §3, §4

GluA2/3 = target: T4, GluA2/3 (Rattus norvegicus, UniProt P19491+P19492); experiment: Whole-cell patch-clamp recording of heteromeric GluA2/3 AMPAR expressed in HEK293T cells; type: cell-based
T4 construct: expressed in transfected cells; host or cells: HEK293T
Protocol: as §1, §2, §3, §4

AMPA receptor subunits = experiment: Whole-cell patch-clamp recording, statements over all tested AMPAR subunits (GluA1, GluA1/2, GluA2, GluA2/3) in HEK293T cells; type: cell-based; settings: 16 µM compound
Protocol: as §1, §2, §3, §4

[1] = Solubility observation during synthesis/characterisation; type: physicochemical; settings: qualitative, NMR in DMSO-d6 could not be run
Protocol: The synthesis of target compounds is carried out according to the sequence of reactions detailed in Scheme 1. SnCl4-catalyzed Friedel-Craft acylation of ethyl 3,4-methylenedioxy phenylacetate 1 with either 2-fluoro-4-nitrobezoylchloride 2a or 3-methoxy-4-nitrobenzoyl chloride 2b in dry CH2Cl2 yields the required ketoester intermediates 3a and 3b in 40% and 48% yields, respectively. […] Acetic acid promoted a cascade reaction (imine formation followed by cyclization) of ethyl 4,5-(methylenedioxy)-2-[…] with hydrazine hydrate in ethanol afforded 2,3-BZD-4 in a 33% yield. High yield and purity of 2,3-BZD-1 were achieved via Pd-catalyzed hydrogenation of the nitro group in 2,3-BZD-4 in methanol. The generated compounds have physical and spectral (1H-NMR) data consistent with their proposed structures.
5% Pd/C (50 mg) was added to a solution containing 1-(2-floro-4-nitrophenyl)-7,8-(methylenedioxy)-3,5-dihydro-4H-2,3-benzodiazepin-4-one (2,3-BDZ-3) (64.80 mg, 0.19 mmol) in methanol (5 mL) and formic acid (2 mL). After 48 h of stirring at ambient temperature in a hydrogen atmosphere, the Pd/C was filtered out, and the solvent was removed under pressure. The resultant residue was washed with methanol and then with diethyl ether. […]

[2] = 16 µM compound, 500 ms glutamate
[3] = 10 mM glutamate + 16 µM compound, -60 mV, pH 7.4, 22 °C, mean±SEM, n=8
[4] = 10 mM glutamate, 16 µM compound, n=8
[5] = 1 ms 10 mM glutamate + 16 µM compound, n=8
[6] = 500 ms 10 mM glutamate + 16 µM compound, n=8
[7] = log of IC50, read-out: Log IC50 (converted)
[8] = normalized peak current, -60 mV, pH 7.4, 22 °C, read-out: IC50
[9] = washout/recovery, glutamate alone after compound, n=8

T1 sequence (P19490 19-907 isoform P19490-2 limits assumed): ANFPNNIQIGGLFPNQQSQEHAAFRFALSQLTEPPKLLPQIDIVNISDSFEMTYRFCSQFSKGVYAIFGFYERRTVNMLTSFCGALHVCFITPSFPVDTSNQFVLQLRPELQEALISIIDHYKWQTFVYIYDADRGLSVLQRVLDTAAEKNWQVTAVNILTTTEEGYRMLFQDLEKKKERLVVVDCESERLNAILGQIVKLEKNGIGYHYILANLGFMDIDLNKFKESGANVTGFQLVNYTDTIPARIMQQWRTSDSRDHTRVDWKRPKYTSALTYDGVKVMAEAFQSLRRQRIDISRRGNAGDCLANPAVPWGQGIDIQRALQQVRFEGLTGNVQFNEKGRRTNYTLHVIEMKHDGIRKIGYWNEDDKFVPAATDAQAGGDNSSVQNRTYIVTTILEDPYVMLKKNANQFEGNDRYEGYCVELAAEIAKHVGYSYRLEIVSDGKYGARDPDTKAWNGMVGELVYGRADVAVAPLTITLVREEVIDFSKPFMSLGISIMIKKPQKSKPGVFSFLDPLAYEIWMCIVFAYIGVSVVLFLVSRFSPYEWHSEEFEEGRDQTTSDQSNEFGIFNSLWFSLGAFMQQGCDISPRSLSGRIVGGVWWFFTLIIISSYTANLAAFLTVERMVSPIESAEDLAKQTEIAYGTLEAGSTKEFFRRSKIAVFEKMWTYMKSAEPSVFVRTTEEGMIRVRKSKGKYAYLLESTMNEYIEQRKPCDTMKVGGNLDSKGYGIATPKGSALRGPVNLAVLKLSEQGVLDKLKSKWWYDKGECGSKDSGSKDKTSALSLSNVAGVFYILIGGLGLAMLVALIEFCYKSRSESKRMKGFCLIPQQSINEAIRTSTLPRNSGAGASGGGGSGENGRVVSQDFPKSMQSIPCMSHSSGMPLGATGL
T2 sequence (P19490 19-907 isoform P19490-2 limits assumed): as above
T2 sequence (P19491 22-883 isoform P19491-2 limits assumed): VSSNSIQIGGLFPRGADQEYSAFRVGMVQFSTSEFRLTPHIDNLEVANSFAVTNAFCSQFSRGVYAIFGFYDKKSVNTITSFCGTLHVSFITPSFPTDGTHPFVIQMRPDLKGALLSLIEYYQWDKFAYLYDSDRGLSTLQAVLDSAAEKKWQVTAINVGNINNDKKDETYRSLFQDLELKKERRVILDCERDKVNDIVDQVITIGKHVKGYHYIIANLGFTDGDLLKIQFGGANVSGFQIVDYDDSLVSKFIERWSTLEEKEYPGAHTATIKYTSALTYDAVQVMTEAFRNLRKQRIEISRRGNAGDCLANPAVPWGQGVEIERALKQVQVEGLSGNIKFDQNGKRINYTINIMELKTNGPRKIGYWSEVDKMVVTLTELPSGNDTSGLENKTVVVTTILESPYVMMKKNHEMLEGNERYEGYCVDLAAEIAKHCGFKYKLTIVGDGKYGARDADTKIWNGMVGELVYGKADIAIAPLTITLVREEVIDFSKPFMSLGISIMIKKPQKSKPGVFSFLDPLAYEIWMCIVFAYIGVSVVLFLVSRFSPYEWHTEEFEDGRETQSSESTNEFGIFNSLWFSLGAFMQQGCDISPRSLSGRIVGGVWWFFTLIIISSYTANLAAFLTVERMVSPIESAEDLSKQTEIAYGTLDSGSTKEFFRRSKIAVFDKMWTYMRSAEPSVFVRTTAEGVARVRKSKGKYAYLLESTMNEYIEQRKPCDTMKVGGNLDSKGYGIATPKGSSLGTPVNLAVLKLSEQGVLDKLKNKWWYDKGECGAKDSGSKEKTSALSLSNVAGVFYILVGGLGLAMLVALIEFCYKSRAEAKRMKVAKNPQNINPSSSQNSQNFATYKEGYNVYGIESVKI
T3 sequence (P19491 22-883 isoform P19491-2 limits assumed): as above
T4 sequence (P19491 22-883 isoform P19491-2 limits assumed): as above
T4 sequence (P19492 23-888 isoform P19492-2 limits assumed): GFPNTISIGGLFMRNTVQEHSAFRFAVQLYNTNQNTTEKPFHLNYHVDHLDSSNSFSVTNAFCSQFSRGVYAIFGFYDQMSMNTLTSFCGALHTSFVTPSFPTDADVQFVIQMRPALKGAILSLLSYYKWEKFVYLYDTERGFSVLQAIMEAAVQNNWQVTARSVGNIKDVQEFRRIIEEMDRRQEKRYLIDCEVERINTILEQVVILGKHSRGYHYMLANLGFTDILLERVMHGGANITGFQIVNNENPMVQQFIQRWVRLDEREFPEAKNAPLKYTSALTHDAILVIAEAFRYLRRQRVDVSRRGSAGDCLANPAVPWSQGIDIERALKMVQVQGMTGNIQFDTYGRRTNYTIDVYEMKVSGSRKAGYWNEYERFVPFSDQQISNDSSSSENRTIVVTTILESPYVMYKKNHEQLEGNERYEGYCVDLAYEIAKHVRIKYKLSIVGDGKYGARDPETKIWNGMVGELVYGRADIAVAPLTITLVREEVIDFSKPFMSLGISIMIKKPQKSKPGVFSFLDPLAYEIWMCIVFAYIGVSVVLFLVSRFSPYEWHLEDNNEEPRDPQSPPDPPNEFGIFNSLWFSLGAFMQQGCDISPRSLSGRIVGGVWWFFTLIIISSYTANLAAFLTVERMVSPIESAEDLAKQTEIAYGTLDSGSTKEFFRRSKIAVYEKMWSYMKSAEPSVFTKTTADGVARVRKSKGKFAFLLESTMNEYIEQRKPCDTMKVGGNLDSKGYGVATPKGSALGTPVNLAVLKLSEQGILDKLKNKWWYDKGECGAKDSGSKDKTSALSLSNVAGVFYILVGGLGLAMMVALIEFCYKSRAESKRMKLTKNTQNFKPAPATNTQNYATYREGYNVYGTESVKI

Amplitude with compound (GluA1; [3]): 85±7.0 pA
A/AI (current amplitude ratio without/with compound) (GluA1; [4]): 11.08±1.0
t deact (weighted deactivation time constant) (GluA1; [5]): 6.3 ± 0.4 ms
IC50 (GluA1; [7]): 3.24 µM
IC50 (GluA1; [8]): 3.26 µM
Amplitude, applying glutamate alone after compound (GluA1; [9]): 935±39 pA
Amplitude with compound (GluA1/2; [3]): 51±7.0 pA
A/AI (current amplitude ratio without/with compound) (GluA1/2; [4]): 11.21±1.0
t deact (weighted deactivation time constant) (GluA1/2; [5]): 6.7 ± 0.6 ms
IC50 (GluA1/2; [7]): 3.02 µM
IC50 (GluA1/2; [8]): 3.05 µM
Amplitude, applying glutamate alone after compound (GluA1/2; [9]): 575±35 pA
Amplitude with compound (GluA2; [3]): 108±9.0 pA
A/AI (current amplitude ratio without/with compound) (GluA2; [4]): 12.31±1.0
t deact (weighted deactivation time constant) (GluA2; [5]): 8.7 ± 0.6 ms
IC50 (GluA2; [7]): 3.02 µM
IC50 (GluA2; [8]): 3.02 µM
Amplitude, applying glutamate alone after compound (GluA2; [9]): 1322±33 pA
Amplitude with compound (GluA2/3; [3]): 49±4 pA
A/AI (current amplitude ratio without/with compound) (GluA2/3; [4]): 12.09±1.0
t deact (weighted deactivation time constant) (GluA2/3; [5]): 8.1 ± 0.7 ms
IC50 (GluA2/3; [7]): 3.09 µM
IC50 (GluA2/3; [8]): 3.09 µM
Amplitude, applying glutamate alone after compound (GluA2/3; [9]): 589±33 pA
Solubility (observation) [1]: low solubility
Solubility (observation) ([1]; listed as 2,3-BZD-1): highly insoluble
SMILES: Nc1ccc(C2=NNC(=O)Cc3cc4c(cc32)OCO4)c(F)c1 [2,3-BDZ-1, 1-(4-Amino-2-fluorophenyl)-7,8-(methylenedioxy)-3,5-dihydro-4H-2,3-benzodiazepin-4-one]
Reduction of desensitization rate (GluA1; [2]): ~2 fold
t des (weighted desensitization time constant) (GluA1; [6]): 1.1 ± 0.1 ms
Reduction of desensitization rate (GluA1/2; [2]): ~2 fold
t des (weighted desensitization time constant) (GluA1/2; [6]): 2.7 ± 0.2 ms
Reduction of desensitization rate (GluA2; [2]): 4–5 fold
t des (weighted desensitization time constant) (GluA2; [6]): 0.6 ± 0.05 ms
Reduction of desensitization rate (GluA2/3; [2]): 3–4 fold
t des (weighted desensitization time constant) (GluA2/3; [6]): 0.8 ± 0.08 ms
Reduction in AMPAR subunit currents (AMPA receptor subunits): 11–12 fold
Effect on deactivation rate of the AMPAR subunits examined (AMPA receptor subunits; 1 ms glutamate): almost triples
